Test results reported in the METLIN SMRT retention time set (Domingo-Almenara et al. 2019).

Assay: gradient 5% acetonitrile 3 min, to 50% in 2 min, to 85% in 15 min, held 3 min, 100 µL/min
Details: column: Zorbax Extend-C18 2.1 x 50 mm; eluents: water / acetonitrile, 0.1% formic acid
Outline: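 Pure standards were analyzed in mixtures of ~100 molecules using HPLC coupled to a quadrupole time-of-flight mass spectrometer, in both positive and negative ionization mode. Separation used a Zorbax Extend-C18 column (2.1 × 50 mm, 1.8 μm) at 100 μL/min, with water and acetonitrile each containing 0.1% formic acid. Dead and dwell volumes were 40 μL and 900 μL, and data were collected over 3 months. Retention time was read from computationally picked adduct peaks, each inspected manually.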

SMILES	RP-LC retention time [s]
Cc1ccc(-n2c(=O)n(CC(=O)Nc3cccc(C)c3C)c3cccnc32)cc1	907
Cn1c(C(=O)N2CCN(c3ccccc3)CC2)cc2c(=O)oc3ccccc3c21	905
CN(C)CCNC(=O)c1cc(N2CCCC2)n2nccc2n1	590
Cc1sc2ccn(C)c(=O)c2c1C(=O)N1CCN(c2cccc(Cl)c2)CC1	844
CCCCC(C)C(=O)N1CCCN(C2=NS(=O)(=O)C(c3ccc(CC)cc3)=C2C)CC1 (stereo not given)	1020
COc1ccc(-c2ncc3c(n2)CCN(S(=O)(=O)c2ccc(Cl)s2)C3)cc1	1140
O=C(c1cc(=O)c(OCc2ccc(F)cc2)co1)N1CCN(c2ncccn2)CC1	696
O=C(NCc1cccc(C(F)(F)F)c1)c1cn2nc(Cl)ccc2n1	908
COc1cc(-c2nc3ccc(Cl)cn3c2Nc2ccccc2C)ccc1O	720
CCn1nc(C(=O)Nc2cccc3c2C(=O)N(C)C3=O)cc1C	856
Cc1ccc(-c2nnc(SCC(=O)N3CCC(C)CC3)o2)cc1	986
CN1c2ccccc2C(=O)NC12CCN(C(=O)Nc1ccccc1Cl)CC2	761
CN1CCN(CCNC(=O)c2cnn3c4c(cnc23)CCCCCC4)CC1	599
Cc1cccc(-c2noc(C3CCCN3C(=O)Nc3ccccc3F)n2)c1 (stereo not given)	1020
CCOc1ccc(-c2nc(CN(c3ccccc3)S(=O)(=O)c3cccs3)c(C)o2)cc1OC	1120
CN(C)c1ncncc1N1CCC(C(=O)NC2CCCCCC2)CC1	624
Cc1ccc(F)cc1NS(=O)(=O)c1cn(CC(C)C)c2ncccc12	993
O=S(=O)(c1cc(F)ccc1F)N1CCCCC1c1noc(COCC2CC2)n1 (stereo not given)	1130
CCn1c(=O)c(C)nc2cc(-c3noc(-c4ccc(Br)o4)n3)ccc21	1040
Cc1ccc(CNC(=O)Cn2nc(C(=O)N3CCOCC3)c3ccccc32)cc1	753
CCOc1ccc(-c2nc(Cn3ccn4nc(-c5ccc(OC)cc5)cc4c3=O)c(C)o2)cc1OC	1030
Cc1ccc(NC(=O)Cn2c(=O)n(-c3ccc(F)cc3)c(=O)c3c2cc(C)n3C)cc1	800
COc1ccccc1-c1nc(Cn2nnc(-c3nc(-c4ccc(OC(C)C)cc4)no3)c2C)c(C)o1	1230

SMILES	RP-LC retention time [s]
CC(C)C(=O)Nc1nnc(SCc2nnc(-c3ccc4c(c3)OCO4)o2)s1	773
O=C(NCCn1ncccc1=O)C1CCN(c2ccc(-c3ccc(F)cc3)nn2)CC1	560
Cc1ccc(-c2nc3cccc(C)n3c2Nc2ccccc2)cc1	741
CCc1ccc(S(=O)(=O)N2CCc3nc(-c4ccc(F)cc4)ncc3C2)cc1	1190
CC(C)c1ccc(S(=O)(=O)N2CCC(c3cc(N)on3)CC2)cc1	902
CC1(C)CC(NC(=O)COc2ccc(Cl)cc2)CC(C)(C)N1	623
CCOc1ccccc1CNC(=O)c1cc2c(=O)n(C)ccc2n1C	713
CCNC(=O)N1CCCC(c2cccc(C(=O)NC3CCCC3)c2)C1 (stereo not given)	764
O=c1n(Cc2c(F)cccc2Cl)nc2ccc(S(=O)(=O)N3CCCCCC3)cn12	996
COC(=O)c1cccc(Nc2ncccc2S(N)(=O)=O)c1	777
CCC(=O)NCC12CCCC=C1NC(=O)CC2 (stereo not given)	597
O=C(Cn1cccc(-c2nc(-c3ccc(Cl)cc3)no2)c1=O)N1CCCCC1	855
CC(C)n1c(N2CCN(C(=O)COc3ccc(Cl)cc3)CC2)cc(=O)n(C(C)C)c1=O	928
Cc1ccc(NC(=O)Cn2cnc3nc(N4CCCC(C(=O)NC(C)C)C4)sc3c2=O)cc1C (stereo not given)	730
CC(C)(C)c1csc(-c2csc(S(=O)(=O)Nc3ccc(F)c(Cl)c3)c2)n1	1310
Cc1ccccc1Cn1c(CN2CCC(C(=O)NCCCN3CCCC3)CC2)cc2ccccc21	646
Cc1noc([C@@H]2CN(Cc3c(F)cccc3F)C[C@H]2CO)n1	562
COc1ccc2c(c1)C1(CCN(C(=O)c3ccc(C#N)cc3)C1)C(=O)N2C (stereo not given)	735
O=C(c1ccco1)N1CCN(S(=O)(=O)c2cc3c4c(c2)CCC(=O)N4CCC3)CC1	690
CN(C)C(=O)c1ccc2c(c1)nc(CN(C)C(=O)Nc1ccc(Br)cc1)n2C	628
Cc1ccccc1CSc1nnc2c(S(=O)(=O)N3CCCC3)cccn12	861
c1cc(-c2noc(C3CCOC3)n2)cc(N2CCOCC2)n1 (stereo not given)	651
COc1ccc(-c2cc(=O)c3cc(Br)ccc3o2)cc1OC	912

SMILES	RP-LC retention time [s]
COC(=O)c1cn(Cc2cccc(C)c2)c2nc(C)ccc2c1=O	854
Cc1cc2nc(C(=O)Nc3ccc(C#N)cc3)cc(C)n2n1	890
Cc1cc(C)n(-c2ccnc(NCCC3=CCCCC3)n2)n1	975
CC1CCCN(S(=O)(=O)c2ccc(-n3cnc(C(=O)N4CCCCC4)c3)nc2)C1 (stereo not given)	881
CC1Cc2cc(S(=O)(=O)CCC(=O)N3CCN(Cc4ccccc4)CC3)ccc2N1C(=O)C1CC1 (stereo not given)	666
COc1ccc(NC(=O)N2CCC(n3cnnc3C3CC3)C2)c(OC)c1 (stereo not given)	610
COc1ccc(OC)c(S(=O)(=O)N2CCC(n3cnc4c(C)cccc4c3=O)CC2)c1	918
C=CCN(CC=C)C(=O)Cn1c(C2CC(=O)N(c3ccc(OC)cc3)C2)nc2ccccc21 (stereo not given)	682
COc1cc(OC)c(NC(=O)Nc2c(-c3ccc(F)cc3)nc3ccccn23)cc1Cl	708
Nc1nc(-c2ccc(Cl)cc2)nn1C(=O)Cc1ccc(Cl)cc1	1170
O=C(Cc1cccs1)NC1CCCN(c2cc(-c3ccc(F)cc3)[nH]n2)C1 (stereo not given)	784
Cc1cccc(Sc2nccnc2N2CCC(C(=O)NCC3CCCO3)CC2)c1 (stereo not given)	888
CCCNc1cc(N2CCC(CCC(=O)Nc3ccc4c(c3)OCCO4)CC2)ncn1	682
O=C(Nc1cc(F)cc(F)c1)N1CCC(CCNC(=O)C2(c3ccccc3)CC2)CC1	984
CCOc1cc(=O)c(C(N)=O)nn1-c1ccc(F)cc1	622
CCC(=O)N1CCc2cc(C(=O)NCCC3=CCCCC3)ccc21	891
CCC(=O)Nc1ccc(-n2cnc(C(=O)NCC3CC3)c2)nc1	660
Cc1cc(NC(=O)C2CCCN(c3ccc(-c4ccc(Cl)cc4)nn3)C2)no1 (stereo not given)	686
CC(C)(C)NC(=O)N1CCC(CNC(=O)c2ccsc2)CC1	657
O=[N+]([O-])c1ccc(-c2cn(-c3ccc(Cl)cc3)cn2)cc1	933
CCc1nc(N)n(CC(=O)Nc2cc(C)ccc2C)c(=O)c1C	643
CCN(Cc1ccccc1)C(=O)CS(=O)Cc1cnn(-c2ccccc2)c1-n1cccc1 (stereo not given)	825
Cc1ccc(C)c(NC(=O)CN(C)S(=O)(=O)c2cc(C(=O)N3CCC(C)CC3)n(C)c2)c1	924

SMILES	RP-LC retention time [s]
O=C(NC1CC1)C1CCN(Cc2cc3ccccc3n2Cc2cccc(Cl)c2)CC1	730
O=C(Nc1nc(-c2ccccc2)cs1)c1c(-c2ccccc2)nc2n1CCS2(=O)=O	1010
CC(=O)N1CCc2cc(N3CC(C(=O)Nc4cc(F)ccc4F)CC3=O)ccc21 (stereo not given)	712
COCc1nc2cccnc2n1C1CCN(C(=O)NCCc2ccccc2)CC1	692
CN(C)C(=O)c1nc2ccccn2c1-c1ccsc1	595
CCCn1cc(CCNC(=O)Nc2c(C)cccc2C)c2cccnc21	736
O=C(Cc1ccsc1)Nc1cccn2c(C3CCC3)nnc12	745
CCc1cc(C(=O)Nc2cc(C)ccc2C)nc2ccnn12	1140
CCC(=O)Nc1ccc(C2(C(=O)N3CCOCC3)CCCCC2)cc1	721
CCn1nccc1C(=O)N1CC(Oc2ccc(-c3nc(-c4ccccc4)no3)cc2)C1	1120
Cc1ccc(-c2cc(NC(=O)Cc3ccsc3)on2)s1	966
CCCCCNC(=O)c1cn(-c2ccc(NC(C)=O)cn2)cn1	690
O=C(CC1CCCC1)NC(c1ccccc1)c1nnc(N2CCCCC2)o1 (stereo not given)	881
CCOc1cccc(CNC(=O)c2c(O)c3cccnc3[nH]c2=O)c1	969
O=C(CN1CC=C(c2cnn(-c3ccccc3)c2)CC1)N1CCCc2ccccc21	726
O=C(CN1CCC(c2nc(-c3ccc(F)cc3)no2)CC1)NC1CCCCC1	715
COc1ccc(-c2csc3c(=O)n(CC(=O)N4CCCC4)cnc23)cc1	760
COc1ccc(F)cc1S(=O)(=O)N1CCC2(CC1)NCCCN=C2NC1CCCC1	607
C=Cc1ccc(Cn2nc3c(S(=O)(=O)N4CCc5ccccc5C4)cccn3c2=O)cc1	1050
CCCc1cc(N2CCN(C(=O)Cc3ccsc3)CC2)nc2nnc(C)n12	627
Cc1ccc(C)c(CNC(=O)Cn2c(=O)c3nnc(C)n3c3ncccc32)c1	712
